US20250114582A1, “METHOD FOR EFFICIENT DRUG ADMINISTRATION ACROSS THE BLOOD-BRAIN BARRIER AND USES THEREOF” (Carthera, priority 2023, published 2025)
“And” between values parts separate entries of the source, which are not always exact repeats. Equal values may be shown once. “Also recorded” adds a separate entry of the source.

Key:
[1] = system: recurrent Glioblastoma Multiforme (GBM); assay: phase 1/2a clinical trial: carboplatin with LIPU/microbubble BBB opening (SonoCloud-9), clinical outcomes; assay type: in vivo, human
Description: A prospective, open-label, multi-center, single-arm, dose escalation, phase 1/2a clinical trial was conducted enrolling recurrent Glioblastoma Multiforme (“GBM”) patients at four clinical sites in France and two sites in the United States. All patients provided written informed consent in accordance with institutional guidelines. Approval was obtained from the ANSM (French National Health Agency) and from the US FDA (Food and Drug Administration). The study was conducted in accordance with good clinical practices. The study began in February 2019 and follow-up was completed in November 2022.
The trial was designed to evaluate the safety and efficacy of transient disruption of the blood-brain barrier by low intensity pulsed ultrasound (“LIPU”) with an implantable ultrasound device, i.e., the SonoCloud-9 implantable device (“SC9”; Carthera, Lyon, France). The trial first evaluated the Dose Limiting Toxicity (“DLT”) of escalating numbers of ultrasound beams (3, 6, and 9 beams) at constant acoustic pressure (1.03 MPa) using a 3+3 dose escalation design (cohorts A, B and C) and then confirmed the safety and efficacy of BBB opening in two expansion cohorts (cohorts C & D).
(§1) The secondary endpoints included the frequency and severity of adverse events (incidence of adverse events summarized by system organ class and/or preferred term and severity) based on the CTCAE, version 5.0, the time to and localization of recurrence(s) on magnetic resonance imaging, feasibility of the procedure considering the time required for the sonication (from beginning of needle connection to the end of ultrasound emission and needle extraction) at the first 3 sonications of each patient, and the total time for SonoCloud 9 positioning using the SonoCloud 9 template. Six-month progression-free survival (6m-PFS), median progression-free survival (mPFS), and 1-year overall survival (1y-OS) and median OS (mOS) were also evaluated. In this trial, time to progression or to death was calculated from time of surgery/device implantation to time of events.
The SC9 device contains no internal energy source and is activated on demand by connecting the device to an external generator using a transdermal needle, as shown in FIG. 7A. Each sonication step consists of the generation of sequential pulses from each emitter (1 MHz, 25 ms pulse, 0.5 Hz, 270 seconds) in combination with the IV administration of the ultrasound resonator (microbubbles [MB], Definity®/Luminity® 10 μL/kg, Lantheus, N. Billerica, MA). The ultrasound resonator is injected as a 30-second bolus at the start of the ultrasound sonication procedure. Sonication was performed prior (within 60 minutes) to the carboplatin chemotherapy at cycles 1, 2 and 3 and no more than 30 minutes before the start of carboplatin therapy for the following cycles, for cohorts A, B, and C. For cohort D, the sonication was performed immediately after the completion of the carboplatin infusion. After completion of the six sonication cycles specified in the protocol or in the case of progression/premature discontinuation of the trial and prior to the end of study visit, the removal of the device could be performed unless considered as contra-indicated by the investigator or refused by the patient.
Standard carboplatin chemotherapy using any FDA/ANSM-approved, therapeutically equivalent carboplatin injectable drug product, with a target AUC of 4-6 mg/ml*min (AUC as per local practice and investigators judgement) was given according to the Calvert formula (Calvert et al., 1989, J. Clin. Oncol. 7:1748-1756). Cycles were to be repeated every 4 weeks provided the absolute neutrophil count had recovered to ≥1500 cells/mm^3 and the platelet count was at least 100,000 cells/mm^3. Subsequent dosages were adjusted for toxicity as needed per local practice.

[2] = system: recurrent Glioblastoma Multiforme (GBM); assay: contrast enhancing tumor progression assessment on MRI in the clinical trial; assay type: in vivo, human; conditions: for tumor growth rate (median): hyperintense T1w volume in region targeted by the implant
Description: To evaluate the local effect of the treatment, an analysis was performed using the monthly pre-ultrasound and end-of-study MR images. The T1w contrast-enhancing tumor-related region segmented with a semi-automatic method (ITK Snap) (Yushkevich et al. 2006, Neuroimage 31:1116-1128). The total volume of this hyperintense region was evaluated at each treatment cycle in the whole brain, and in the region targeted by the implant, considering nine […] cylinders in front of the emitters. This region corresponded to 10×75 mm cylinders with an additional diffusion margin of 5 mm (Goldwirt et al., 2016, Cancer Chemother. Pharmacol. 77:211-216).
To further evaluate tumor progression likelihood as a function of distance to the region targeted by the emitters, the difference of this hyperintense volume between the last MRI and the first cycle was used as a progression mask. The distribution of the volume of this progression mask relative to the distance to the axes of the nine emitters was computed.

[3] = plasma kinetics used for the model; cited from earlier work
[4] = dose-limiting toxicity, tolerability and safety of carboplatin delivered with concomitant LIPU/MB-based BBB opening; assay type: in vivo, human
Excerpt: For the Phase 1 (escalation of the number of active emitters/beams), the main objective was to identify the Maximum Tolerated Dose (“MTD”) defined as the highest active-beams level at which ≤1 DLT occurred in a maximum of 6 patients by cohort. […]
as §1
All patients were clinically assessed at least once a month (prior to the next cycle) and included standard laboratory blood analyses (complete blood counts, chemistry with liver and kidney function tests), and also a contrast-enhanced MRI within 2 days prior to sonication. Patients discontinued the study if tumor progression was identified according to the Response Assessment in Neuro-Oncology criteria (Wen et al., 2010, J. Clin. Oncol. 28:1963-1972). For patients continuing the study, subsequent MRI exam was to be performed immediately after LIPU/MB treatment.

[5] = cohort C, carboplatin after US (N = 15)
[6] = cohort D, carboplatin before US (N = 12)
[7] = cohorts C + D (N = 27), 9 emitters activated
[8] = CTCAE Grade 3, N = 34, related to the investigational procedure
[9] = CTCAE all grade, N = 34, related to the investigational procedure

**Q.** Which results are given for `N.N.O=C([O-])C1(C(=O)[O-])CCC1.[Pt+2]` [carboplatin]?
**A.** 1-yr OS [1, 5]: 46.7% and 47%; 9-month OS [1, 5]: 67%; mOS [1, 5]: 11.8 months; mPFS [1, 5]: 2.5 months; 1-yr OS [1, 6]: 58.3% and 58%; 9-month OS [1, 6]: 75%; mOS [1, 6]: 14.0 months; mPFS [1, 6]: 3.1 months; 1-yr OS [1, 7]: 52%; 9-month OS [1, 7]: 70%; mOS [1, 7]: 12.4 months; mPFS [1, 7]: 2.7 months; tumor growth rate (median) ([2]; cohort C (carboplatin after sonication)): 2.31 mL/month; evolution of the T1w enhancement outside the sonication field ([2]; cohort C vs cohort D, region targeted by the implant excluded (p=0.55)): no significant difference; tumor growth rate (median) ([2]; cohort D (carboplatin before sonication)): 0.54 mL/month; in-field tumor control ([2]; cohort D compared to cohort C): Better in-field tumor control; local tumor progression probability (% ROI volume covered with hyperintense tumor at end of study vs distance to emitter axis) ([2]; cohort D vs cohort C, up to 10 mm radius from emitter axes (significant up to 7.5 mm)): less likelihood; also recorded: lower; alpha half-life [3]: ~1 h; beta half-life [3]: ~6 h; General disorders and administration site conditions [4, 8]: 1 (3%); Infections and infestations [4, 8]: 2 (6%); Nervous system disorders [4, 8]: 3 (9%); Patients with Any Related TEAEs (Overall) [4, 8]: 12 (35%); Skin and subcutaneous tissue disorders [4, 8]: 6 (18%); Anxiety [4, 9]: 1 (3%); Aphasia [4, 9]: 4 (12%); Balance disorder [4, 9]: 1 (3%); Cerebrospinal fluid leakage [4, 9]: 2 (6%); Confusional state [4, 9]: 1 (3%); Depression [4, 9]: 1 (3%); Diplopia/Vision blurred [4, 9]: 6 (17%); Dizziness [4, 9]: 8 (24%); Dysarthria [4, 9]: 2 (6%); Ear and labyrinth disorders [4, 9]: 2 (6%); Fatigue/Asthenia [4, 9]: 6 (18%); General disorders and administration site conditions [4, 9]: 8 (24%); Headache [4, 9]: 7 (21%); Hypoaesthesia [4, 9]: 1 (3%); Implant site pain [4, 9]: 1 (3%); Infections and infestations [4, 9]: 2 (6%); Injury, poisoning and procedural complications [4, 9]: 3 (9%); Lacunar stroke [4, 9]: 1 (3%); Language disorder [4, 9]: 1 (3%); Meningocele acquired [4, 9]: 3 (9%); Monoparesis [4, 9]: 1 (3%); Nervous system disorders [4, 9]: 25 (74%); Pain of skin [4, 9]: 19 (56%); Paraesthesia [4, 9]: 3 (9%); Patients with Any Related TEAEs (Overall) [4, 9]: 33 (97%); Post procedural oedema [4, 9]: 1 (3%); Presyncope [4, 9]: 2 (6%); Psychiatric disorders [4, 9]: 2 (6%); Scar [4, 9]: 1 (3%); Seizure [4, 9]: 2 (6%); Skin and subcutaneous tissue disorders [4, 9]: 19 (56%); Subarachnoid haemorrhage [4, 9]: 1 (3%); Vertigo [4, 9]: 2 (6%); Wound infection/Postoperative wound infection [4, 9]: 2 (6%); grade 4 events ([4]; CTCAE, all implanted patients): No grade 4 events; tolerability of device implantation and repeated BBB opening procedure ([4]; all patients): well-tolerated; pattern of hematological and non-hematological toxicities secondary to carboplatin ([4]; e.g. bone marrow suppression, anemia, vomiting): as expected; Dose Limiting Toxicity (DLT) ([4]; sonication plus carboplatin, 3, 6 and 9 beams): No DLTs

**Q.** Which alpha half-life [3] does the source give for `CC(=O)O[C@H]1C(=O)[C@@]2(C)[C@H]([C@H](OC(=O)c3ccccc3)[C@]3(O)C[C@H](OC(=O)[C@H](O)[C@@H](NC(=O)c4ccccc4)c4ccccc4)C(C)=C1C3(C)C)[C@]1(OC(C)=O)CO[C@@H]1C[C@@H]2O` [paclitaxel] here?
**A.** ~0.5 h

**Q.** And the beta half-life [3]?
**A.** several hours
